# Measurements as given in patent US20260184691A1, “INHIBITORS AND DEGRADERS OF PIP4K PROTEIN” (Larkspur Biosciences, Inc., priority 2022, published 2026).
# Biological target: T1, Human PIP4K2C (Homo sapiens, UniProt Q8TBX8)
# T1 construct: purchased Eurofins DiscoverX 87-0007-1094
# T1 sequence (Q8TBX8 1-421): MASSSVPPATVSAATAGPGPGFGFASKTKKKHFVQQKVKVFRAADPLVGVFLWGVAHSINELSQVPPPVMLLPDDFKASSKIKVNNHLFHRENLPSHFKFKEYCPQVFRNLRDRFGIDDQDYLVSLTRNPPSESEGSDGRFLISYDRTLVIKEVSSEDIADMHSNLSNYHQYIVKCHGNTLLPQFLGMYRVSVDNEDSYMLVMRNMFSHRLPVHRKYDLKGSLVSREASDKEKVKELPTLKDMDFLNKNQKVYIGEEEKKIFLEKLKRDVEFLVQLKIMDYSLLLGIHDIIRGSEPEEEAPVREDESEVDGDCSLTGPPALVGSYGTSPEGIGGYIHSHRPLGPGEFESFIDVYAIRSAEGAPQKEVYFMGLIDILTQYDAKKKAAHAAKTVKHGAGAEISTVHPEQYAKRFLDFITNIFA
# Experiment: Enzyme binding assay (KINOMEscan), active site-directed competition binding
# Conditions: 11-point dose response, duplicate, top concentration 5 micromolar; read-out: Pip4k2c Kd: IC50
# Protocol: PIP4K2C binding constants disclosed herein were determined using the proprietary Human PIP4K2C binding assay (Catalog number 87-0007-1094, Eurofins DiscoverX, San Diego, CA). This assay measures active site-directed competition binding to an immobilized ligand (see https://doi.org/10.1038/nbt1068, herein incorporated by reference in its entirety). Experiments were conducted using an 11-point dose response curve, in duplicate, with a top starting concentration of 5 micromolar; the Levenberg-Marquardt algorithm was used to fit a Hill equation to dose-response data to calculate IC50 values (see Table 5).
row,SMILES,IC50 [nM]
1,"O=C1CCCN1c1cncc(Nc2ncc(Cl)c(-c3ccccc3Cl)n2)c1 [Compound 95, 1-(5-((5-chloro-4-(2-chlorophenyl)pyrimidin-2-yl)amino)pyridin-3-yl)pyrrolidin-2-one]",< 500
2,"O=C1CCCN1c1cncc(Nc2ncc(Cl)c(-c3cccc(-c4cnccn4)c3)n2)c1 [Compound 17, 1-(5-((5-chloro-4-(3-(pyrazin-2-yl)phenyl)pyrimidin-2-yl)amino)pyridin-3-yl)pyrrolidin-2-one]",< 500
3,"O=C1CCCN1c1cncc(Nc2ncc(Cl)c(-c3cccc(N4CCC4)c3)n2)c1 [Compound 122, 1-(5-((4-(3-(azetidin-1-yl)phenyl)-5-chloropyrimidin-2-yl)amino)pyridin-3-yl)pyrrolidin-2-one]",< 500
4,"O=C1CCCN1c1cncc(Nc2ncc(F)c(-c3ccc(=O)n(C4COC4)c3)n2)c1 [Compound 155, 5-(5-fluoro-2-((5-(2-oxopyrrolidin-1-yl)pyridin-3-yl)amino)pyrimidin-4-yl)-1-(oxetan-3-yl)pyridin-2(1H)-one]",< 500
5,"O=C1CCCN1c1cncc(Nc2cc(-c3ccc(F)cc3)c(Cl)cn2)c1 [Compound 103, 1-(5-((5-chloro-4-(4-fluorophenyl)pyridin-2-yl)amino)pyridin-3-yl)pyrrolidin-2-one]",< 500
6,"O=C1CCCN1c1cncc(Nc2ncc(Cl)c(-c3cccc(-c4ccccn4)c3)n2)c1 [Compound 9, 1-(5-((5-chloro-4-(3-(pyridin-2-yl)phenyl)pyrimidin-2-yl)amino)pyridin-3-yl)pyrrolidin-2-one]",< 500
7,"O=C1CCCN1c1cncc(Nc2ncc(Cl)c(N3C(=O)CC[C@H]3c3ccccc3)n2)c1 [29, Enant A]",< 500
8,"CC(=O)N1CCC(c2cccc(-c3nc(Nc4cncc(N5CCCC5=O)c4)ncc3Cl)c2)CC1 [Compound 28, 1-(5-((4-(3-(1-acetylpiperidin-4-yl)phenyl)-5-chloropyrimidin-2-yl)amino)pyridin-3-yl)pyrrolidin-2-one]",< 500
9,"O=C1CCCN1c1cncc(Nc2ncc(Cl)c(-c3ccc(F)cc3F)n2)c1 [Compound 108, 1-(5-((5-chloro-4-(2,4-difluorophenyl)pyrimidin-2-yl)amino)pyridin-3-yl)pyrrolidin-2-one]",< 500
10,"O=C1CCCN1c1cncc(Nc2ncc(Cl)c(-c3cccc(-c4cccnc4)c3)n2)c1 [Compound 16, 1-(5-((5-chloro-4-(3-(pyridin-3-yl)phenyl)pyrimidin-2-yl)amino)pyridin-3-yl)pyrrolidin-2-one]",< 500
11,"CN1CC2(CC(=O)N(c3cncc(Nc4ncc(Cl)c(-c5cccc(-c6ccccc6)c5)n4)c3)C2)C1 [Compound 35, 6-(5-((4-([1,1′-biphenyl]-3-yl)-5-chloropyrimidin-2-yl)amino)pyridin-3-yl)-2-methyl-2,6-diazaspiro[3.4]octan-7-one]",< 500
12,"Cc1cc(-c2ccccc2)cc(-c2nc(Nc3cncc(N4CCCC4=O)c3)ncc2Cl)c1 [Compound 11, 1-(5-((5-chloro-4-(5-methyl-[1,1′-biphenyl]-3-yl)pyrimidin-2-yl)amino)pyridin-3-yl)pyrrolidin-2-one]",< 500
13,"O=C1CCCN1c1cncc(Nc2ncc(Cl)c(-c3cccc(N4CCCCC4)c3)n2)c1 [Compound 38, 1-(5-((5-chloro-4-(3-(piperidin-1-yl)phenyl)pyrimidin-2-yl)amino)pyridin-3-yl)pyrrolidin-2-one]",< 500
14,"O=C1CCCN1c1cncc(Nc2ncc(F)c(-c3ccc(=O)n(C4CCC4)c3)n2)c1 [Compound 157, 1-cyclobutyl-5-(5-fluoro-2-((5-(2-oxopyrrolidin-1-yl)pyridin-3-yl)amino)pyrimidin-4-yl)pyridin-2(1H)-one]",< 500
15,"O=C1CCCN1c1cncc(Nc2ncc(F)c(-c3ccc(=O)n(CC4CC4)c3)n2)c1 [Compound 158, 1-(cyclopropylmethyl)-5-(5-fluoro-2-((5-(2-oxopyrrolidin-1-yl)pyridin-3-yl)amino)pyrimidin-4-yl)pyridin-2(1H)-one]",< 500
16,"O=C1CCCN1c1cncc(Nc2ncc(Cl)c(N3CCC(c4ccccc4)C3)n2)c1 (stereo not shown) [Compound 42, 1-(5-((5-chloro-4-(3-phenylpyrrolidin-1-yl)pyrimidin-2-yl)amino)pyridin-3-yl)pyrrolidin-2-one]",< 500

# Now from value to compound:
row,IC50 [nM],SMILES
1,< 500,"O=C1CCCN1c1cncc(Nc2ncc(Cl)c(N3CCC(c4ccccn4)C3)n2)c1 (stereo not shown) [Compound 120, 1-(5-((5-chloro-4-(3-(pyridin-2-yl)pyrrolidin-1-yl)pyrimidin-2-yl)amino)pyridin-3-yl)pyrrolidin-2-one]"
2,< 500,"O=C1CCCN1c1cncc(Nc2ncc(Cl)c(N3CCC(C4CCCC4)C3)n2)c1 (stereo not shown) [Compound 136, 1-(5-((5-chloro-4-(3-cyclopentylpyrrolidin-1-yl)pyrimidin-2-yl)amino)pyridin-3-yl)pyrrolidin-2-one]"
3,< 500,"O=C(c1ccc(F)cc1)N1CCCC(c2nc(Nc3cncc(N4CCCC4=O)c3)ncc2Cl)C1 (stereo not shown) [Compound 162, 1-(5-((5-chloro-4-(1-(4-fluorobenzoyl)piperidin-3-yl)pyrimidin-2-yl)amino)pyridin-3-yl)pyrrolidin-2-one]"
4,< 500,"O=C1CCCN1c1cncc(Nc2ncc(Cl)c(N3CCC[C@H](c4ccccn4)C3)n2)c1 (single isomer, unassigned) [Compound 125]"
5,< 500,"CC1CCN(c2nc(Nc3cncc(N4CCCC4=O)c3)ncc2Cl)CC1 [Compound 102, 1-(5-((5-chloro-4-(4-methylpiperidin-1yl)pyrimidin-2-yl)amino)pyridin-3-yl)pyrrolidin-2-one]"
6,< 500,"CCCCNC(=O)C1CCCN(c2nc(Nc3cncc(N4CCCC4=O)c3)ncc2Cl)C1 (stereo not shown) [Compound 109, N-butyl-1-(5-chloro-2-((5-(2-oxopyrrolidin-1-yl)pyridin-3-yl)amino)pyrimidin-4-yl)piperidine-3-carboxamide]"
7,< 500,"O=C1CCCN1c1cncc(Nc2ncc(Cl)c(-c3cccc(C4CCCC4)c3)n2)c1 [Compound 40, 1-(5-((5-chloro-4-(3-cyclopentylphenyl)pyrimidin-2-yl)amino)pyridin-3-yl)pyrrolidin-2-one]"
8,< 500,"O=C1CCCN1c1cncc(Nc2ncc(Cl)c(-c3cccc(C4CC4)c3)n2)c1 [Compound 12, 1-(5-((5-chloro-4-(3-cyclopropylphenyl)pyrimidin-2-yl)amino)pyridin-3-yl)pyrrolidin-2-one]"
9,< 500,"CC1CCCN(c2nc(Nc3cncc(N4CCCC4=O)c3)ncc2Cl)C1 (stereo not shown) [Compound 100, 1-(5-((5-chloro-4-(3-methylpiperidin-1-yl)pyrimidin-2-yl)amino)pyridin-3-yl)pyrrolidin-2-one]"
10,< 500,"O=C1CCCN1c1cncc(Nc2ncc(Cl)c(N3CCC[C@@H](c4ccccc4)C3)n2)c1 [Compound 43, (S)-1-(5-((5-chloro-4-(3-phenylpiperidin-1-yl)pyrimidin-2-yl)amino)pyridin-3-yl)pyrrolidin-2-one]"
11,< 500,"O=C1CCCN1c1cncc(Nc2ncc(Cl)c(-c3ccn(C4CCCC4)n3)n2)c1 [Compound 144, 1-(5-((5-chloro-4-(1-cyclopentyl-1H-pyrazol-3-yl)pyrimidin-2-yl)amino)pyridin-3-yl)pyrrolidin-2-one]"
12,< 500,"CC1CN(c2nc(Nc3cncc(N4CCCC4=O)c3)ncc2Cl)CC(C)O1 (stereo not shown) [Compound 114, 1-(5-((5-chloro-4-(2,6-dimethylmorpholino)pyrimidin-2-yl)amino)pyridin-3-yl)pyrrolidin-2-one]"
13,< 500,"CC(=O)N1CCC(c2nc(Nc3cncc(N4CCCC4=O)c3)ncc2Cl)CC1 [Compound 152, 1-(5-((4-(1-acetylpiperidin-4-yl)-5-chloropyrimidin-2-yl)amino)pyridin-3-yl)pyrrolidin-2-one]"
14,< 500,"CN1CCCC(c2cccc(-c3nc(Nc4cncc(N5CCCC5=O)c4)ncc3Cl)c2)C1 (stereo not shown) [Compound 33, 1-(5-((5-chloro-4-(3-(1-methylpiperidin-3-yl)phenyl)pyrimidin-2-yl)amino)pyridin-3-yl)pyrrolidin-2-one]"
15,< 500,"CC(=O)N1CCCC(c2cccc(-c3nc(Nc4cncc(N5CCCC5=O)c4)ncc3Cl)c2)C1 (stereo not shown) [Compound 34, 1-(5-((4-(3-(1-acetylpiperidin-3-yl)phenyl)-5-chloropyrimidin-2-yl)amino)pyridin-3-yl)pyrrolidin-2-one]"
16,< 500,"O=C1CCCN1c1cncc(Nc2ncc(Cl)c(-c3cnn(C4CCC4)c3)n2)c1 [Compound 137, 1-(5-((5-chloro-4-(1-cyclobutyl-1H-pyrazol-4-yl)pyrimidin-2-yl)amino)pyridin-3-yl)pyrrolidin-2-one]"
17,< 500,"O=C1CCCN1c1cncc(Nc2ncc(Cl)c(C3CCCN(C4CC4)C3)n2)c1 (stereo not shown) [Compound 149, 1-(5-((5-chloro-4-(1-cyclopropylpiperidin-3-yl)pyrimidin-2-yl)amino)pyridin-3-yl)pyrrolidin-2-one]"
18,< 500,"O=C(c1cccc(=O)[nH]1)N1CCCC(c2nc(Nc3cncc(N4CCCC4=O)c3)ncc2Cl)C1 (stereo not shown) [Compound 161, 6-(3-(5-chloro-2-((5-(2-oxopyrrolidin-1-yl)pyridin-3-yl)amino)pyrimidin-4-yl)piperidine-1-carbonyl)pyridin-2(1H)-one]"
